The text below walks through data of ChEMBL document CHEMBL5518244, “Design, Synthesis, and Biological Evaluation of a Novel NIK Inhibitor with Anti-Inflammatory and Hepatoprotective Effects for Sepsis Treatment” (J Med Chem, 2024).

As a reminder, the IC50 is the point on the concentration scale where inhibition reaches its midpoint.

Assay [1] concerns the target T1, Mitogen-activated protein kinase kinase kinase 14 (Homo sapiens, UniProt Q99558). The assay is described as follows: Inhibition of NIK (unknown origin) incubated 30 to 60 mins by ADP-Glo Kinase.
Target sequence in this assay (Q99558 whole entry): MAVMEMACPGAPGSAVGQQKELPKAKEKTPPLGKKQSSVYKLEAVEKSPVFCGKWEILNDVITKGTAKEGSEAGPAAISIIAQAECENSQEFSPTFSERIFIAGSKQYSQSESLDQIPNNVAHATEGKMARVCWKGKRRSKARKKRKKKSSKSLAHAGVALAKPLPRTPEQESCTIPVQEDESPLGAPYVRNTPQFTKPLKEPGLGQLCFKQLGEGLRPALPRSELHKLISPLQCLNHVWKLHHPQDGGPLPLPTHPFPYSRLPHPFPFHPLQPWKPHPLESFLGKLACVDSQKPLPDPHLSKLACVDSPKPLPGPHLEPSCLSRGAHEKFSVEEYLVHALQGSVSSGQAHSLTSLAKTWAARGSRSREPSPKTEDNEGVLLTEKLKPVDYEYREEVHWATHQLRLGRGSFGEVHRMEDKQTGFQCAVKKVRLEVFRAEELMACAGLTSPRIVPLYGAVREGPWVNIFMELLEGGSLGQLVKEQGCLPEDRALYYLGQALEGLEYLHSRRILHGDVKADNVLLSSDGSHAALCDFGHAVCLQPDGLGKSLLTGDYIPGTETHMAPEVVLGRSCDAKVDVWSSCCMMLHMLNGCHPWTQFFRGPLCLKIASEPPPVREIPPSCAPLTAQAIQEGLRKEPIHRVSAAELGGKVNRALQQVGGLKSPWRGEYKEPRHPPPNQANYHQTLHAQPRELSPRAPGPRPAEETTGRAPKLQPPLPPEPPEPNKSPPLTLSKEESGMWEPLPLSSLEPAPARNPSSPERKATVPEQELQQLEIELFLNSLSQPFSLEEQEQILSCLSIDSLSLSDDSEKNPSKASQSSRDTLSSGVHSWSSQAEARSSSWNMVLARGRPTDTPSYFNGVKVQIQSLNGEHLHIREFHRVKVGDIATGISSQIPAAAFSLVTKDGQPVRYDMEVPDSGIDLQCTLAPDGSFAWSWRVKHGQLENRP
The target in assay [2] is T1, Mitogen-activated protein kinase kinase kinase 14. The assay is described as follows: Inhibition of NIK (unknown origin) expressed in COS-7 cells co-expressing NF-KappaB luciferase reporter assessed as suppression of luciferase reporter at 1 uM measured after 24 by beta-Gal activity assay. Format: cell-based.
Target sequence in this assay (Q99558 whole entry, looked up): as the sequence (Q99558 whole entry) above
The target is the same in assay [3]. The assay is described as follows: Inhibition of NIK (unknown origin) expressed in COS-7 cells co-expressing NF-KappaB luciferase reporter assessed as suppression of luciferase reporter measured after 24 by beta-Gal activity assay. The assay is classed as cell-based. A general note: A reporter such as luciferase makes a cellular process visible.
Target sequence in this assay (Q99558 whole entry): as above
Assay [4] relates to Macrophage. Briefly: Anti-inflammatory activity in mouse macrophages extracted from abdominal activity assessed as inhibition of LPS-induced nitric oxide production at 1 uM measured after 22 hrs by Griess reagent assay relative to control. The assay is classed as functional, cell-based. On the technique in general: Nitrite, measured by Griess reagent, commonly stands in for NO production.

For assay [5], the target named is T1, Mitogen-activated protein kinase kinase kinase 14. The assay is described as follows: Inhibition of NIK (unknown origin) expressed in COS-7 cells co-expressing NF-KappaB luciferase reporter assessed as suppression of luciferase reporter at 5 uM measured after 24 by beta-Gal activity assay. The assay is classed as cell-based.
Target sequence in this assay (Q99558 whole entry, looked up): as the sequence (Q99558 whole entry) above

Structures are written as SMILES. Calls of active or inactive are those of the source. The calls are words filed in the database; no cut-off is given here.

Turning to `CN(C)c1ccnc(Nc2nccc(N3CCCn4nc(C#CC(C)(O)c5nccs5)cc43)n2)c1` (stereo not given), the IC50 in assay [1] amounted to 208 nM. Same read-out and setting: as for `CC(C)Nc1nccc(N2CCCn3nc(C#CC(C)(O)c4nccs4)cc32)n1` (stereo not given), the figure is 14.3 nM; as for `COc1cc(Nc2nccc(N3CCCn4nc(C#C[C@](C)(O)c5nccs5)cc43)n2)cc(OC)c1`, 89.4 nM. For the compound `CC(O)(C#Cc1cc2n(n1)CCCN2c1ccnc(Nc2ccc3c(c2)OCO3)n1)c1nccs1` (stereo not given), the inhibition result in assay [2] and in assay [5] was “Active” in each case. Besides, the values for the IC50 in assay [3], in assay [1] and in assay [4] were 1410 nM, 2.85 nM and 80300 nM, respectively. Compound `CC(C)Oc1cccc(Nc2nccc(N3CCCn4nc(C#CC(C)(O)c5nccs5)cc43)n2)n1` (stereo not given) showed an IC50 in assay [1] of 16.5 nM.

With `CN(C)c1cccc(Nc2nccc(N3CCCn4nc(C#CC(C)(O)c5nccs5)cc43)n2)c1` (stereo not given), the inhibition entry in assay [2] and in assay [5] was “Active” each time. Besides, the IC50 in assay [3] was found to be 2230 nM; in assay [1], 7.76 nM; in assay [4], 76800 nM. In assay [1], `CC(O)(C#Cc1cc2n(n1)CCCN2c1ccnc(Nc2cc(Cl)ccn2)n1)c1nccs1` (stereo not given) came in with an IC50 of 6.99 nM. On the same count and under the same terms, as for `Cn1cc(Nc2nccc(N3CCCn4nc(C#CC(C)(O)c5nccs5)cc43)n2)cn1` (stereo not given), the figure is 5.35 nM; as for `CC(O)(C#Cc1cc2n(n1)CCCN2c1ccnc(Nc2ccc3c(c2)OCO3)n1)c1ccccc1` (stereo not given), 29.1 nM; as for `CC(O)(C#Cc1cc2n(n1)CCCN2c1ccnc(Nc2ccc3ccccc3n2)n1)c1nccs1` (stereo not given), 22.1 nM. Still for that read-out and setting: as for `CC(O)(C#Cc1cc2n(n1)CCCN2c1ccnc(N)n1)c1nccs1` (stereo not given), the figure is 4.6 nM. On the same count and under the same terms, as for `CC(O)(C#Cc1cc2n(n1)CCCN2c1ccnc(NC2CCCCC2)n1)c1nccs1` (stereo not given), the figure is 131 nM. For `CC(O)(C#Cc1cc2n(n1)CCCN2c1ccnc(NC23CC(C2)C3)n1)c1nccs1` (stereo not given), the inhibition result in assay [2] and in assay [5] was “Active” in each case. In addition, the values for the half-maximal inhibitory concentration (IC50) in assay [3], in assay [1] and in assay [4] were 1510 nM, 5.39 nM and 16500 nM, respectively.

In the case of `CC(C)n1cc(Nc2nccc(N3CCCn4nc(C#CC(C)(O)c5nccs5)cc43)n2)cn1` (stereo not given), the IC50 in assay [1] stood at 9.17 nM. The same measure, in the same setting: as for `Cn1ccc(Nc2nccc(N3CCCn4nc(C#CC(C)(O)c5nccs5)cc43)n2)n1` (stereo not given), the figure is 9.36 nM; as for `CC(O)(C#Cc1cc2n(n1)CCCN2c1ccnc(Nc2ccc3c(c2)OC(F)(F)O3)n1)c1nccs1` (stereo not given), 15.4 nM; as for `C(#CC1CC1)c1cc2n(n1)CCCN2c1ccnc(Nc2ccc3c(c2)OCO3)n1`, above 500 nM. The same measure, in the same setting: as for `CC(O)(C#Cc1cc2n(n1)CCCN2c1ccnc(Nc2ccccn2)n1)c1nccs1` (stereo not given), the figure is 5.93 nM; as for `COCCN(C)c1cccc(Nc2nccc(N3CCCn4nc(C#CC(C)(O)c5nccs5)cc43)n2)n1` (stereo not given), 14.8 nM. Turning to `CC(O)(C#Cc1cc2n(n1)CCCN2c1ccnc(Nc2cccc(C#N)c2)n1)c1nccs1` (stereo not given), the inhibition result in assay [2] and in assay [5] was “Active” throughout. Besides, the IC50 in assay [3] is 3560 nM; in assay [1] it was 5.01 nM; in assay [4], 64100 nM. Turning to `Cc1cc(C(C)(O)C#Cc2cc3n(n2)CCCN3c2ccnc(Nc3ccc4c(c3)OCO4)n2)no1` (stereo not given), the IC50 in assay [1] turned out to be 3.78 nM. As to `CC(O)(C#Cc1cc2n(n1)CCCN2c1ccnc(Nc2ccc(Cl)cc2)n1)c1nccs1` (stereo not given), half-maximal inhibition in assay [1] (IC50) required 6.46 nM. Same read-out and setting: as for `CC(C)(O)C#Cc1cc2n(n1)CCCN2c1ccnc(Nc2ccc3c(c2)OCO3)n1`, the figure is 22.7 nM; as for `CC(O)(C#Cc1cc2n(n1)CCCN2c1ccnc(Nc2ccc(F)cn2)n1)c1nccs1` (stereo not given), 8.34 nM. The same measure, in the same setting: as for `CNc1nccc(N2CCCn3nc(C#CC(C)(O)c4nccs4)cc32)n1` (stereo not given), the figure is 11.2 nM. In assay [1], `CC(O)(C#Cc1cc2n(n1)CCCN2c1ncnc2[nH]ccc12)c1nccs1` (stereo not given) yielded an IC50 above 500 nM. In turn, `CC(O)(C#Cc1cc2n(n1)CCCN2c1ccnc(Nc2ccncn2)n1)c1nccs1` (stereo not given) returned an IC50 in assay [1] of 11.3 nM.

For the compound `CN(C)c1cccc(Nc2nccc(N3CCCn4nc(C#CC(C)(O)c5nccs5)cc43)n2)n1` (stereo not given), the IC50 in assay [1] turned out to be 13 nM. `CC(O)(C#Cc1ccc2c(c1)N(c1nc(N)ncc1Cl)CC2)c1nccs1` (stereo not given): the concentration for half-maximal inhibition (IC50) is 910 nM in assay [3], 2.68 nM in assay [1] and 58600 nM in assay [4]. Turning to `CC(O)(C#Cc1cc2n(n1)CCCN2c1ccnc(Nc2cccc(N3CCOCC3)c2)n1)c1nccs1` (stereo not given), half-maximal inhibition in assay [1] (IC50) required 11.5 nM. Still for that read-out and setting: as for `CC(O)(C#Cc1cc2n(n1)CCCN2c1ccnc(Nc2cccc(C(F)(F)F)n2)n1)c1nccs1` (stereo not given), the figure is 16.6 nM; as for `COc1cccc(Nc2nccc(N3CCCn4nc(C#CC(C)(O)c5nccs5)cc43)n2)n1` (stereo not given), 4.43 nM; as for `CC(O)(C#Cc1cc2n(n1)CCCN2c1cccc(Nc2ccccc2)n1)c1nccs1` (stereo not given), above 500 nM.

On to `CC(O)(C#Cc1cc2n(n1)CCCN2c1ncnc(Nc2ccc(Cl)cc2)n1)c1nccs1` (stereo not given), for which, in assay [1], the IC50 is 4.73 nM.

`COc1ccc(Nc2nccc(N3CCCn4nc(C#CC(C)(O)c5nccs5)cc43)n2)nc1` (stereo not given) came in with an IC50 in assay [1] of 7.44 nM.

The compound `COCCNc1nccc(N2CCCn3nc(C#CC(C)(O)c4nccs4)cc32)n1` (stereo not given) showed an IC50 in assay [1] of 34.2 nM. As for `CC(O)(C#Cc1cc2n(n1)CCCN2c1ccnc(Nc2cccc(N3CCOCC3)n2)n1)c1nccs1` (stereo not given), the inhibition entry in assay [2] and in assay [5] was “Active” in each case. The IC50 in assay [3] turned out to be 2430 nM; in assay [1], 9.8 nM; in assay [4] it was 17200 nM. The compound `OC1(C#Cc2cc3n(n2)CCCN3c2ccnc(Nc3ccc4c(c3)OCO4)n2)COC1` had an IC50 in assay [1] above 500 nM. On the same count and under the same terms, as for `COc1cccnc1Nc1nccc(N2CCCn3nc(C#CC(C)(O)c4nccs4)cc32)n1` (stereo not given), the figure is 433 nM; as for `CC(O)(C#Cc1cc2n(n1)CCCN2c1nc(N)ncc1Cl)c1nccs1` (stereo not given), 70.8 nM. Turning to `COc1cccc(Nc2nccc(N3CCCn4nc(C#CC(C)(O)c5nccs5)cc43)n2)c1` (stereo not given), the inhibition entry in assay [2] and in assay [5] was “Active” in each case. Further, the values for the IC50 in assay [3], in assay [1] and in assay [4] were 1330 nM, 5.77 nM and 45900 nM, respectively. `CC(O)(C#Cc1cc2n(n1)CCCN2c1nc(N)ncc1F)c1nccs1` (stereo not given) showed a half-maximal inhibitory concentration (IC50) in assay [1] above 500 nM. Same read-out and setting: as for `C(#Cc1cc2n(n1)CCCN2c1ccnc(Nc2ccc3c(c2)OCO3)n1)c1ccccn1`, the figure is above 500 nM; as for `CC(O)(C#Cc1cc2n(n1)CCCN2c1ccnc(Nc2cc(C#N)ccn2)n1)c1nccs1` (stereo not given), 6.96 nM. Regarding `CC(O)(C#Cc1cc2n(n1)CCCN2c1ccnc(Nc2ccccc2)n1)c1nccs1` (stereo not given), the inhibition result in assay [2] and in assay [5] was “Active” throughout. Moreover, the IC50 turned out to be 2170 nM in assay [3], 4.76 nM in assay [1] and 59400 nM in assay [4]. Regarding `COc1cc(Nc2nccc(N3CCCn4nc(C#CC(C)(O)c5nccs5)cc43)n2)nc(OC)c1` (stereo not given), the concentration for half-maximal inhibition (IC50) in assay [1] was 10.7 nM. On the same count and under the same terms, as for `CC(O)(C#Cc1cc2n(n1)CCCN2c1ccnc(Nc2ccccc2)c1)c1nccs1` (stereo not given), the figure is 11.3 nM.

With `CC(O)(C#Cc1cc2n(n1)CCCN2c1ccnc(Nc2cccc(N3CCCCC3)n2)n1)c1nccs1` (stereo not given), in assay [1], the midpoint of inhibition, the IC50, lay at 24.6 nM. In the case of `OC1(C#Cc2cc3n(n2)CCCN3c2ccnc(Nc3ccc4c(c3)OCO4)n2)CCCC1`, in assay [1], the IC50 stood at 14.1 nM.

Compound `CC(O)(C#Cc1cc2n(n1)CCCN2c1cc(Nc2ccc(F)cc2)ncn1)c1nccs1` (stereo not given) had an IC50 in assay [1] of 58.4 nM. Compound `COc1cc(Nc2nccc(N3CCCn4nc(C#CC(C)(O)c5nccs5)cc43)n2)cc(OC)c1` (stereo not given) had a 50% inhibitory concentration (IC50) in assay [1] of 6.74 nM. Compound `CC(O)(C#Cc1cc2n(n1)CCCN2c1ccnc(Nc2ccc(F)cc2)n1)c1nccs1` (stereo not given) came in with a half-inhibitory concentration (IC50) in assay [1] of 6.17 nM. On the same count and under the same terms, as for `COc1ccnc(Nc2nccc(N3CCCn4nc(C#CC(C)(O)c5nccs5)cc43)n2)c1` (stereo not given), the figure is 5.1 nM; as for `OC1(C#Cc2cc3n(n2)CCCN3c2ccnc(Nc3ccc4c(c3)OCO4)n2)CCn2ccnc21` (stereo not given), 4.33 nM; as for `CC(O)(C#Cc1cc2n(n1)CCCN2c1ccnc(Nc2cc(N3CCOCC3)ccn2)n1)c1nccs1` (stereo not given), 341 nM.
